Data from ChEMBL document CHEMBL3885881, “DrugMatrix”.

Species on record: Rattus norvegicus
Test: DrugMatrix - Regimen: Daily Repeat
Assay type: toxicity, organism-based, Sprague-Dawley
Set-up: regimen Daily Repeat, gender Male, age 6-8 weeks
Settings: in vivo, po, route oral GAVAGE, vehicle .5 % CMC; for ABSOLUTE BASOPHIL / ABSOLUTE EOSINOPHIL / ABSOLUTE LYMPHOCYTE / ABSOLUTE MONOCYTE / ABSOLUTE SEGMENTED NEUTROPHIL / BASOPHIL / EOSINOPHIL / ERYTHROCYTE COUNT / HEMATOCRIT / HEMOGLOBIN / LEUKOCYTE COUNT / LYMPHOCYTE / MEAN CORPUSCULAR HEMOGLOBIN / MEAN CORPUSCULAR HEMOGLOBIN CONCENTRATION / MEAN CORPUSCULAR VOLUME / MONOCYTE / NEUTROPHIL / NUCLEATED RED BLOOD CELLS / PLATELET COUNT: tissue Blood; for ALANINE AMINOTRANSFERASE / ALBUMIN / ALKALINE PHOSPHATASE / ASPARTATE AMINOTRANSFERASE / BLOOD UREA NITROGEN / CARBON DIOXIDE / CHLORIDE / CHOLESTEROL / CREATINE PHOSPHOKINASE / CREATININE / GLUCOSE / LACTATE DEHYDROGENASE / LIPASE / PHOSPHORUS / POTASSIUM / SODIUM / TOTAL BILIRUBIN / TOTAL PROTEIN / URIC ACID: tissue Plasma
[1] = 0 mg/kg, 72 h, dose level Control, time 3 day
[2] = 0 mg/kg, 120 h, dose level Control, time 5 day
[3] = 60 mg/kg, 72 h, dose level Low, time 3 day
[4] = 60 mg/kg, 120 h, dose level Low, time 5 day

## CC(C)[C@H]1CC[C@H](C(=O)N[C@H](Cc2ccccc2)C(=O)O)CC1 [NATEGLINIDE]
[1]
  ABSOLUTE BASOPHIL: 0 CELLS/uL
  ABSOLUTE EOSINOPHIL: 35.67 CELLS/uL
  ABSOLUTE LYMPHOCYTE: 9125.17 CELLS/uL
  ABSOLUTE MONOCYTE: 50.17 CELLS/uL
  ABSOLUTE SEGMENTED NEUTROPHIL: 722.33 CELLS/uL
  BASOPHIL: 0%
  EOSINOPHIL: 0.33%
  ERYTHROCYTE COUNT: 5.35 x10E6/uL
  HEMATOCRIT: 33.58%
  HEMOGLOBIN: 13.35 G/DL
  LEUKOCYTE COUNT: 9.93 x10E3/uL
  LYMPHOCYTE: 91.67%
  MEAN CORPUSCULAR HEMOGLOBIN: 25 pg
  MEAN CORPUSCULAR HEMOGLOBIN CONCENTRATION: 39.8 G/DL
  MEAN CORPUSCULAR VOLUME: 62.77 fL
  MONOCYTE: 0.67%
  NEUTROPHIL: 7.33%
  NUCLEATED RED BLOOD CELLS: 0 /100WBC
  PLATELET COUNT: 866.17 x10E3/uL
  ALANINE AMINOTRANSFERASE: 57.17 u/L
  ALBUMIN: 4.22 G/DL
  ALKALINE PHOSPHATASE: 391 u/L
  ASPARTATE AMINOTRANSFERASE: 95.17 u/L
  BLOOD UREA NITROGEN: 13.67 mg/dL
  CARBON DIOXIDE: 30 mmol/L
  CHLORIDE: 102.5 MEQ/L
  CHOLESTEROL: 72 mg/dL
  CREATINE PHOSPHOKINASE: 485.67 u/L
  CREATININE: 0.27 mg/dL
  GLUCOSE: 152 mg/dL
  LACTATE DEHYDROGENASE: 372.67 u/L
  LIPASE: 9.83 u/L
  PHOSPHORUS: 12.47 mg/dL
  POTASSIUM: 6.81 MEQ/L
  SODIUM: 144.1 MEQ/L
  TOTAL BILIRUBIN: 0.23 mg/dL
  TOTAL PROTEIN: 5.93 G/DL
  URIC ACID: 1.9 mg/dL
[2]
  ABSOLUTE BASOPHIL: 0 CELLS/uL
  ABSOLUTE EOSINOPHIL: 67.33 CELLS/uL
  ABSOLUTE LYMPHOCYTE: 11419.17 CELLS/uL
  ABSOLUTE MONOCYTE: 203.17 CELLS/uL
  ABSOLUTE SEGMENTED NEUTROPHIL: 1327 CELLS/uL
  BASOPHIL: 0%
  EOSINOPHIL: 0.5%
  ERYTHROCYTE COUNT: 5.65 x10E6/uL
  HEMATOCRIT: 35.3%
  HEMOGLOBIN: 13.98 G/DL
  LEUKOCYTE COUNT: 13.02 x10E3/uL
  LYMPHOCYTE: 88%
  MEAN CORPUSCULAR HEMOGLOBIN: 24.78 pg
  MEAN CORPUSCULAR HEMOGLOBIN CONCENTRATION: 39.63 G/DL
  MEAN CORPUSCULAR VOLUME: 62.58 fL
  MONOCYTE: 1.33%
  NEUTROPHIL: 10.17%
  NUCLEATED RED BLOOD CELLS: 0 /100WBC
  PLATELET COUNT: 1213.83 x10E3/uL
  ALANINE AMINOTRANSFERASE: 49.67 u/L
  ALBUMIN: 4.28 G/DL
  ALKALINE PHOSPHATASE: 362.33 u/L
  ASPARTATE AMINOTRANSFERASE: 99 u/L
  BLOOD UREA NITROGEN: 20.67 mg/dL
  CARBON DIOXIDE: 26.33 mmol/L
  CHLORIDE: 102 MEQ/L
  CHOLESTEROL: 63.83 mg/dL
  CREATINE PHOSPHOKINASE: 481.83 u/L
  CREATININE: 0.21 mg/dL
  GLUCOSE: 158 mg/dL
  LACTATE DEHYDROGENASE: 656.33 u/L
  LIPASE: 10.67 u/L
  PHOSPHORUS: 12.27 mg/dL
  POTASSIUM: 6.17 MEQ/L
  SODIUM: 143.35 MEQ/L
  TOTAL BILIRUBIN: 0.17 mg/dL
  TOTAL PROTEIN: 6.13 G/DL
  URIC ACID: 1.48 mg/dL
[3]
  ABSOLUTE BASOPHIL: 0 CELLS/uL
  ABSOLUTE EOSINOPHIL: 0 CELLS/uL
  ABSOLUTE LYMPHOCYTE: 9045.33 CELLS/uL
  ABSOLUTE MONOCYTE: 160.67 CELLS/uL
  ABSOLUTE SEGMENTED NEUTROPHIL: 994 CELLS/uL
  BASOPHIL: 0%
  EOSINOPHIL: 0%
  ERYTHROCYTE COUNT: 5.13 x10E6/uL
  HEMATOCRIT: 32.57%
  HEMOGLOBIN: 13.4 G/DL
  LEUKOCYTE COUNT: 10.2 x10E3/uL
  LYMPHOCYTE: 88.33%
  MEAN CORPUSCULAR HEMOGLOBIN: 26.2 pg
  MEAN CORPUSCULAR HEMOGLOBIN CONCENTRATION: 41.17 G/DL
  MEAN CORPUSCULAR VOLUME: 63.67 fL
  MONOCYTE: 1.67%
  NEUTROPHIL: 10%
  NUCLEATED RED BLOOD CELLS: 0 /100WBC
  PLATELET COUNT: 720 x10E3/uL
  ALANINE AMINOTRANSFERASE: 53.67 u/L
  ALBUMIN: 4.27 G/DL
  ALKALINE PHOSPHATASE: 449.67 u/L
  ASPARTATE AMINOTRANSFERASE: 94.67 u/L
  BLOOD UREA NITROGEN: 17 mg/dL
  CARBON DIOXIDE: 30.33 mmol/L
  CHLORIDE: 103.67 MEQ/L
  CHOLESTEROL: 73.67 mg/dL
  CREATINE PHOSPHOKINASE: 447.67 u/L
  CREATININE: 0.2 mg/dL
  GLUCOSE: 149 mg/dL
  LACTATE DEHYDROGENASE: 345.33 u/L
  LIPASE: 8.67 u/L
  PHOSPHORUS: 13 mg/dL
  POTASSIUM: 6.04 MEQ/L
  SODIUM: 145.07 MEQ/L
  TOTAL BILIRUBIN: 0.13 mg/dL
  TOTAL PROTEIN: 5.87 G/DL
  URIC ACID: 1.33 mg/dL
[4]
  ABSOLUTE BASOPHIL: 0 CELLS/uL
  ABSOLUTE EOSINOPHIL: 124 CELLS/uL
  ABSOLUTE LYMPHOCYTE: 13794 CELLS/uL
  ABSOLUTE MONOCYTE: 49 CELLS/uL
  ABSOLUTE SEGMENTED NEUTROPHIL: 933 CELLS/uL
  BASOPHIL: 0%
  EOSINOPHIL: 0.67%
  ERYTHROCYTE COUNT: 5.42 x10E6/uL
  HEMATOCRIT: 34.03%
  HEMOGLOBIN: 13.53 G/DL
  LEUKOCYTE COUNT: 14.9 x10E3/uL
  LYMPHOCYTE: 92.33%
  MEAN CORPUSCULAR HEMOGLOBIN: 25 pg
  MEAN CORPUSCULAR HEMOGLOBIN CONCENTRATION: 39.77 G/DL
  MEAN CORPUSCULAR VOLUME: 62.87 fL
  MONOCYTE: 0.33%
  NEUTROPHIL: 6.67%
  NUCLEATED RED BLOOD CELLS: 0 /100WBC
  PLATELET COUNT: 1175.33 x10E3/uL
  ALANINE AMINOTRANSFERASE: 57.67 u/L
  ALBUMIN: 4.2 G/DL
  ALKALINE PHOSPHATASE: 396.67 u/L
  ASPARTATE AMINOTRANSFERASE: 87 u/L
  BLOOD UREA NITROGEN: 20 mg/dL
  CARBON DIOXIDE: 25 mmol/L
  CHLORIDE: 104 MEQ/L
  CHOLESTEROL: 56 mg/dL
  CREATINE PHOSPHOKINASE: 315 u/L
  CREATININE: 0.27 mg/dL
  GLUCOSE: 169.67 mg/dL
  LACTATE DEHYDROGENASE: 303.33 u/L
  LIPASE: 10.67 u/L
  PHOSPHORUS: 12.97 mg/dL
  POTASSIUM: 5.61 MEQ/L
  SODIUM: 144.73 MEQ/L
  TOTAL BILIRUBIN: 0.23 mg/dL
  TOTAL PROTEIN: 5.93 G/DL
  URIC ACID: 1.37 mg/dL
